# Experimental data taken from patent US11166942B2 (PRAXIS BIOTECH LLC, priority 2018, dated 2021).
# Like-named read-outs stand apart in the source and are kept apart here.
# How the values were obtained:
# [1] = system: Chinese hamster ovary (CHO) cells; experiment: Protein translation assay (puromycin labelling, CHO cells); assay type: cell-based; settings: media alone = 100%; for activity at 1 µM: Cricetulus griseus, CHO
# How it was run: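 CHO cells given compound 2 h at 1 μM (unstressed), or 1 h at 100 nM or 1 μM then co-treated with 300 nM Tg (stressed); 10 μg/ml puromycin pulse 30 min, anti-puromycin western blot with β-actin, densitometry. Normalized to media alone (100%) and, for stressed cells, Tg alone (0%).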
# HEK293T cells = experiment: Recovery of protein translation in stressed HEK293T cells; assay type: cell-based, human
# Text: Despite the great potency on the inhibition of ATF4 expression, ISRIB is not able to completely restore protein synthesis when the global protein translation is decreased under these stress conditions. […] Compound 4 has a great potency for the inhibition of ATF4 expression under stress condition (FIG. 3) and is much better at restoring global protein translation under ER stress-mediated repression and going beyond a 100% recovery (FIG. 4).
# ATF4 = ATF4 expression inhibition assay (ATF4 5'UTR luciferase reporter, Tg-stressed HEK293T cells); assay type: cell-based, human; settings: 100 nM thapsigargin, 3 hours, HEK293T ATF4 luciferase reporter; for inhibition at 0.1 µM: 100 nM test compound, read-out: % ATF4 inhibition at 100 nM; for IC50: read-out: ATF4 inhbition IC50; for inhibition at 1 µM: 1 μM test compound, read-out: % ATF4 inhibition at 1 μM
# How it was run: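 HEK293T stably expressing luciferase fused downstream of human full-length ATF4 5′UTR, stressed with 100 nM thapsigargin plus compound (100 nM or 1 μM; IC50 series 0.1 nM to 1 μM) for 3 h at 37° C. Luminescence normalized to Tg alone (0%) and untreated cells (100% inhibition).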
# [2] = system: hippocampal slices from transgenic APP/PS1 mice; experiment: Electrophysiology and long-term potentiation in hippocampal slices; settings: slices from APP/PS1 mouse, 5 μM, 20 min before stimulation (FIGS. 5A, 5B)
# Description: Hippocampal slices were prepared as described in Ardiles et al., Pannexin 1 regulates bidirectional hippocampal synaptic plasticity in adult mice. Front Cell Neurosci, vol. 8, art. 326 (2014). Six to nine-month-old WT C57BL/6 or transgenic APP/PS1 mice (Jackson Lab 34829-JAX) were deeply anesthetized with isoflurane and their brains were quickly removed. 5-10 slices (350 μm) from each animal were dissected in ice-cold dissection buffer using a vibratome (Leica VT1200S, Leica Microsystems, Nussloch, Germany). Slices were incubated with 5 μM ISRIB (trans-N,N′-1,4-cyclohexanediylbis[2-(4-chlorophenoxy)-acetamide) or a vehicle (complete medium containing 0.1% DMSO) 20 min before conditioning stimulation. Synaptic responses were evoked by stimulating the Schaffer collaterals with 0.2 ms pulses delivered through concentric bipolar stimulating electrodes, and recorded extracellularly in the stratum radiatum of the CA1 subfield. Long-term potentiation (LTP) was induced by four-theta burst stimulation (TBS) (10 trains of four pulses at 100 Hz; 5 Hz inter-burst interval) delivered at 0.1 Hz. LTP magnitude based on field excitatory postsynaptic potential (fEPSP) was calculated as the average (normalized to baseline) of the responses recorded 60 min after conditioning stimulation. Similar experiments can be performed using a test compound in place of ISRIB.
# [3] = 2 h, unstressed CHO cells, 1 μM, 2 hours, read-out: % Protein synthesis in unstressed cells (1 μM test compound)
# [4] = CHO cells stressed with 300 nM Tg, 1 μM compound, Tg alone = 0%, read-out: % Recovery of protein expression (1 μM test compound)
Compound,"IC50 (ATF4; Homo sapiens, HEK-293T, 3 h)",IC50 (ATF4),"% Recovery of protein expression (100 nM test compound) ([1]; CHO cells stressed with 300 nM Tg, 100 nM compound, Tg alone = 0%)","activity at 1 µM [1, 3]","activity at 1 µM [1, 4]",percent recovery of protein translation in stressed cells (HEK293T cells; 1 μM (FIG. 4)),"inhibition at 0.1 µM (ATF4; Homo sapiens, HEK-293T, 3 h)","inhibition at 1 µM (ATF4; Homo sapiens, HEK-293T, 3 h)","long-term potentiation (LTP, fEPSP slope) 60 min after theta burst stimulation [2]",restoration of protein translation in stressed cells (HEK293T cells; up to 200-fold its IC50 value (FIG. 2))
"O=C(COc1ccc(Cl)c(F)c1)NC1CCN(NC(=O)COc2ccc(Cl)c(F)c2)CC1 [Compound 4, N,N′-(piperidine-1,4-diyl)bis(2-(4-chloro-3-fluorophenoxy)acetamide)]",3.1 nM,,83.5%,105%,169%,> 100%,93.2%,94.7%,,
"O=C(NN1CCN(C[C@@H](O)COc2ccc(Cl)c(F)c2)CC1)c1ccc2cc(Cl)ccc2c1 [Compound 60, (R)-6-chloro-N-(4-(3-(4-chloro-3-fluorophenoxy)-2-hydroxypropyl)piperazin-1-yl)-2-naphthamide]",1.5 nM,,,140%,126%,,92.6%,94.6%,,
"O=C(NN1CCN(C[C@H](O)COc2ccc(Cl)c(F)c2)CC1)c1ccc2cc(Cl)ccc2c1 [Compound 61, (S)-6-chloro-N-(4-(3-(4-chloro-3-fluorophenoxy)-2-hydroxypropyl)piperazin-1-yl)-2-naphthamide]",29.4 nM,,,195%,171%,,72.4%,86.6%,,
"O=C(NN1CCN(C[C@@H](O)COc2ccc(Cl)c(F)c2)CC1)c1ccc(Cl)cn1 [Compound 64, (R)-5-chloro-N-(4-(3-(4-chloro-3-fluorophenoxy)-2-hydroxypropyl)piperazin-1-yl)picolinamide]",,,,109%,34.7%,,20%,56.6%,,
"O=C(NN1CCC(NC[C@@H](O)COc2ccc(Cl)c(F)c2)CC1)c1ccc(Cl)cn1 [Compound 68, (R)-5-chloro-N-(4-((3-(4-chloro-3-fluorophenoxy)-2-hydroxypropyl)amino)piperidin-1-yl)picolinamide]",,,,81.8%,49.3%,,9%,50.9%,,

# The next lines start with results.
"IC50 (ATF4; Homo sapiens, HEK-293T, 3 h)",IC50 (ATF4),Compound,"% Recovery of protein expression (100 nM test compound) ([1]; CHO cells stressed with 300 nM Tg, 100 nM compound, Tg alone = 0%)","activity at 1 µM [1, 3]","activity at 1 µM [1, 4]",percent recovery of protein translation in stressed cells (HEK293T cells; 1 μM (FIG. 4)),"inhibition at 0.1 µM (ATF4; Homo sapiens, HEK-293T, 3 h)","inhibition at 1 µM (ATF4; Homo sapiens, HEK-293T, 3 h)","long-term potentiation (LTP, fEPSP slope) 60 min after theta burst stimulation [2]",restoration of protein translation in stressed cells (HEK293T cells; up to 200-fold its IC50 value (FIG. 2))
< 100 nM,,"O=C(NN1CCN(C[C@@H](O)COc2ccc(Cl)c(F)c2)CC1)c1ccc(OC(F)(F)F)cc1 [Compound 62, (R)-N-(4-(3-(4-chloro-3-fluorophenoxy)-2-hydroxypropyl)piperazin-1-yl)-4-(trifluoromethoxy)benzamide]",,99.5%,40.2%,,85.9%,88.8%,,
< 1000 nM,,"O=C(NN1CCN(C[C@@H](O)COc2ccc(Cl)c(F)c2)CC1)c1ccc(Cl)cc1 [Compound 63, (R)-4-chloro-N-(4-(3-(4-chloro-3-fluorophenoxy)-2-hydroxypropyl)piperazin-1-yl)benzamide]",,107%,16.4%,,14.8%,84.6%,,
< 1000 nM,,"O=C(NN1CCN(C[C@@H](O)COc2ccc(Cl)c(F)c2)CC1)c1ccc(C(F)(F)F)cn1 [Compound 65, (R)-N-(4-(3-(4-chloro-3-fluorophenoxy)-2-hydroxypropyl)piperazin-1-yl)-5-(trifluoromethyl)picolinamide]",,99%,51.1%,,22.6%,80.5%,,
> 1000 nM,,"O=C(NN1CCN(C[C@@H](O)COc2ccc(Cl)c(F)c2)CC1)c1cnc(C(F)F)cn1 [Compound 66, (R)-N-(4-(3-(4-chloro-3-fluorophenoxy)-2-hydroxypropyl)piperazin-1-yl)-5-(difluoromethyl)pyrazine-2-carboxamide]",,84.9%,17.6%,,0%,0%,,
> 1000 nM,,"N#Cc1ccc(C(=O)NN2CCN(C[C@@H](O)COc3ccc(Cl)c(F)c3)CC2)nc1 [Compound 67, (R)-N-(4-(3-(4-chloro-3-fluorophenoxy)-2-hydroxypropyl)piperazin-1-yl)-5-cyanopicolinamide]",,80%,27.6%,,3.6%,27.8%,,
< 1000 nM,,"COc1ccc2oc(C(=O)NN3CCC(NC[C@@H](O)COc4ccc(Cl)c(F)c4)CC3)cc2c1 [Compound 69, (R)-N-(4-((3-(4-chloro-3-fluorophenoxy)-2-hydroxypropyl)amino)piperidin-1-yl)-5-methoxybenzofuran-2-carboxamide]",,129%,43.1%,,37%,78.1%,,
,5 nM,"O=C(COc1ccc(Cl)cc1)N[C@H]1CC[C@H](NC(=O)COc2ccc(Cl)cc2)CC1 [ISRIB, reference compound]",,,,,,,partial LTP recovery,only partially restores protein translation
